Test results published in US20110098242A1, “Methods and Compositions for Diagnosing and Treating Cervical Intraepithelial Neoplasia and Cervical Cancer” (priority 2008, published 2011).

Experiments:
Format in all cases: cell-based, human
[1] = test system: cystatin E/M; assay: Immunofluorescence of cystatin E/M protein in treated HeLa cells; settings: 24 hours post-treatment, 5 μM 5-AzaCdR
Excerpt: (§1) To verify that cystatin E/M expression was not limited to RNA synthesis and to identify the cellular location of protein expression, immunofluorescence (IF) was used. Cystatin E/M expression was absent in the untreated HeLa cells. […] There was uniform expression in the cytoplasm of all cells. […] Thus, re-expression of the gene by treatment with 5-AzaCdR and TSA in HeLa and SiHa cells, respectively, confirmed promoter methylation and/or histone deacetylation playing a role in the inactivation of cystatin E/M expression in these two cell lines.
(§2) Cells were grown overnight on cover slips to semiconfluency (about 70 to 80%) and treated with 5- AzaCdR or TSA, or transfected with plasmid DNAs. Immunofluorescence was performed using the anti cystatin E/M antibody (R & D Systems, Minneapolis, Minn.) following an established protocol. See LoTempio et al. (2005).

[2] = test system: cystatin E/M gene promoter; assay: Sodium bisulfite PCR and sequencing of cystatin E/M promoter CpG methylation in HeLa cells; settings: HeLa cells after treatment with 5-AzaCdR
Method: Having established the promoter activity, four different cell lines and 18 primary tumors were examined for CpG methylation using the sodium bisulfite protocol. Normal endometrium from 16 of the tumors, four different non-involved normal lymphocytes and a lung tissue were used as controls. The analysis was performed using the sequences spanning the −14 to −151 by region of the promoter (NT—033903.7). […] Untreated HeLa cells yielded the 138 by product with the methylation specific PCR. Cell lines Caski, C41, C33A, three of 21 normal tissues (14%) and 7 of 16 tumors (44%) gave the PCR product with both the unmethylation and methylation specific PCRs. Five other tumors (31%) contained only the methlyation specific product. Thus, there was a significant frequency of methylated promoter in the cervical tumors ([…] in tumors versus 3 of 21, 14% in normals, P<0.01, Student's t-test). Methylation in the three normal endometrial tissues could also represent tumor cell contamination. Four of the tumors contained methylation and point mutation (Table 1, FIG. 4A) indicating possible two hits for the functional inactivation of the cystatin E/M gene.
To confirm promoter hypermethylation in the cell lines, sequencing was carried out on the PCR products cloned into the pTOPO plasmid vector. […]

[3] = test system: cystatin E/M gene; assay: RT PCR analysis of cystatin E/M expression in treated SiHa cells
[4] = test system: cystatin E/M; assay: Immunofluorescence of cystatin E/M protein in treated SiHa cells; settings: TSA treatment
Excerpt: as §1, §2

SMILES | cystatin E/M protein expression by immunofluorescence [1] | methylation of C residues in promoter CpG sequences [2] | cystatin E/M RNA expression ([3]; 5 μM and 10 μM 5-AzaCdR) | cystatin E/M RNA expression ([3]; 50 μM 5-AzaCdR) | cystatin E/M RNA expression ([3]; TSA 150 μM) | cystatin E/M protein expression by immunofluorescence [4]
Nc1ncn([C@H]2C[C@H](O)[C@@H](CO)O2)c(=O)n1 [5-AzaCdR, 5′Aza 2-deoxycytidine] | cystatin E/M expression was observed | demethylation of the C residues | did not show expression | low level expression | – | –
CC(/C=C/C(=O)NO)=C\[C@@H](C)C(=O)c1ccc(N(C)C)cc1 [TSA, Trichostatin A] | – | – | – | – | High level RNA expression | uniform cytoplasmic protein expression
